Measured values from ChEMBL document CHEMBL4043070, “Isolation, Structure Elucidation, and Absolute Configuration of Syncarpic Acid-Conjugated Terpenoids from Rhodomyrtus tomentosa” (J Nat Prod, 2017).

Tests used:
[1] = Cytotoxicity against human MCF7/DX cells incubated for 48 hrs by MTT assay; type: cell-based
[2] = Reversal of multidrug resistance in human MCF7/DX cells assessed as potentiation doxorubicin-induced cytotoxicity by measuring reduction in doxorubicin IC50 level at 30 uM incubated for 48 hrs by MTT assay relative to untreated control; type: functional
[3] = Reversal of multidrug resistance in human MCF7/DX cells assessed as potentiation doxorubicin-induced cytotoxicity by measuring reduction in doxorubicin IC50 level at 5 uM incubated for 48 hrs by MTT assay relative to untreated control; type: functional

Row | SMILES | IC50 [1] [µM] | fold change (FC) [2] | fold change (FC) [3]
1 | CC(C)C[C@@H]1C[C@@]2(CC[C@]3(C(C)C)C[C@H]23)OC2=C1C(=O)C(C)(C)C(=O)C2(C)C | > 30 | 4.5 | –
2 | CC(C)C[C@@H]1C[C@]2(CC[C@]3(C(C)C)C[C@H]23)OC2=C1C(=O)C(C)(C)C(=O)C2(C)C | > 30 | 1.2 | –
3 | C=C[C@]1(CCC=C(C)C)C[C@@H](CC(C)C)C2=C(O1)C(C)(C)C(=O)C(C)(C)C2=O | > 30 | 7.4 | –
4 | C=C[C@@]1(CCC=C(C)C)C[C@@H](CC(C)C)C2=C(O1)C(C)(C)C(=O)C(C)(C)C2=O | > 30 | 4.7 | –
5 | Cc1ccc2c(c1)[C@H](C(C)C)CC[C@]21C[C@H](CC(C)C)C2=C(O1)C(C)(C)C(=O)C(C)(C)C2=O | > 30 | 0.9 | –
6 | C=C[C@]1(CCC=C(C)C)C[C@H](CC(C)C)C2=C(O1)C(C)(C)C(=O)C(C)(C)C2=O | > 30 | 16.5 | –
7 | CC(C)C[C@H]1C[C@@]2(CC[C@]3(C(C)C)C[C@H]23)OC2=C1C(=O)C(C)(C)C(=O)C2(C)C | > 30 | 1 | –
8 | CC(C)C[C@H]1C[C@]2(CC[C@]3(C(C)C)C[C@H]23)OC2=C1C(=O)C(C)(C)C(=O)C2(C)C | > 30 | 5.6 | –
9 | C=C[C@@]1(CCC=C(C)C)C[C@H](CC(C)C)C2=C(O1)C(C)(C)C(=O)C(C)(C)C2=O | > 30 | 10.1 | –
10 | COc1ccc(CCN(C)CCCC(C#N)(c2ccc(OC)c(OC)c2)C(C)C)cc1OC (centres undefined) | – | – | 5.4
